Measurements: US4681872A (priority 1985, dated 1987)
Values after ≈ are worked out from the molar mass of the structure shown. Like-named read-outs stand apart in the source and are kept apart here.

How the values were obtained:
[1] = human, in vivo; cited from earlier work
[2] = system: Bact. fragilis 784; test: microbe, parasite or virus in culture; conditions: Bacteroides fragilis
[3] = system: Bact. fragilis UC-2; test: microbe, parasite or virus in culture; conditions: Bacteroides fragilis, UC2
[4] = system: Providencia stuartii CMX 640; test: antimicrobial spectrum, agar dilution MIC; format: cell-based; conditions: BHI agar, 35°-37° C., 20-24 hours
[5] = system: Strep. pyogenes M79061-98; test: antimicrobial spectrum, agar dilution MIC; format: cell-based; conditions: BHI agar, 35°-37° C., 20-24 hours
[6] = system: Bact. fragilis UC-2; conditions: BHI agar, 35°-37° C., 20-24 hours
[7] = system: Lactobacillus Casei ATCC 7469; test: antimicrobial spectrum, agar dilution MIC; conditions: BHI agar, 35°-37° C., 20-24 hours
[8] = system: Strep. pyogenes 930; test: antimicrobial spectrum, agar dilution MIC; conditions: BHI agar, 35°-37° C., 20-24 hours
[9] = system: Micrococcus luteus 9341; test: antimicrobial spectrum, agar dilution MIC; conditions: BHI agar, 35°-37° C., 20-24 hours
[10] = system: Klebsiella pneumoniae 8045; test: antimicrobial spectrum, agar dilution MIC; conditions: BHI agar, 35°-37° C., 20-24 hours
[11] = system: Pseudomonas aeruginosa BMH10; test: antimicrobial spectrum, agar dilution MIC; conditions: BHI agar, 35°-37° C., 20-24 hours
[12] = system: Pseudomonas aeruginosa 5007; test: antimicrobial spectrum, agar dilution MIC; conditions: BHI agar, 35°-37° C., 20-24 hours
[13] = system: Pseudomonas aeruginosa K799/WT; test: antimicrobial spectrum, agar dilution MIC; conditions: BHI agar, 35°-37° C., 20-24 hours
[14] = system: Pseudomonas cepacia 2961; test: antimicrobial spectrum, agar dilution MIC; conditions: BHI agar, 35°-37° C., 20-24 hours
[15] = system: Micrococcus luteus 4698; test: antimicrobial spectrum, agar dilution MIC; conditions: BHI agar, 35°-37° C., 20-24 hours

SMILES | serum half-life [1] [h] | MIC [2] [µg/mL] | MIC [3] [µg/mL] | MIC [4] [µg/mL] | MIC [5] | MIC [6] [µg/mL] | MIC [7] | MIC [8] [µg/mL] | MIC [9] | MIC [10] [µg/mL] | MIC [11] [µg/mL] | MIC [12] [µg/mL] | MIC [13] [µg/mL] | MIC [14] [µg/mL] | MIC [15]
CC[C@H]1OC(=O)[C@H](C)[C@@H](O[C@H]2C[C@@](C)(OC)[C@@H](O)[C@H](C)O2)[C@H](C)[C@@H](O[C@@H]2O[C@H](C)C[C@H](N(C)C)[C@H]2O)[C@](C)(O)C[C@@H](C)C(=O)[C@H](C)[C@@H](O)[C@]1(C)O [Erythromycin A, reference compound] | 2 to 3 | 1.6 (≈ 2.18 µM) | 1.6 (≈ 2.18 µM) |  |  |  |  |  |  |  |  |  |  |  | 
CCC1OC(=O)C(C)C(OC2CC(C)(OC)CC(C)O2)C(C)C(OC2OC(C)CC(N(C)C)C2O)C(C)(O)CC(C)C(=O)C(C)C2OC(=O)OC12C (stereo not drawn) [4"-deoxyerythromycin A 11,12-carbonate] |  |  |  | 100 (≈ 134 µM) | .12 µg/mL (≈ 0.161 µM) | 1.6 (≈ 2.15 µM) | .01 µg/mL (≈ 0.0134 µM) | 100 (≈ 134 µM) | .02 µg/mL (≈ 0.0269 µM) | 25 (≈ 33.6 µM) | 50 (≈ 67.2 µM) | 100 (≈ 134 µM) | 100 (≈ 134 µM) | 50 (≈ 67.2 µM) | .1 µg/mL (≈ 0.134 µM)
